# Measurements reported in patent US9586928B2 (The Scripps Research Institute, priority 2011, dated 2017).
# How the values were obtained:
# [1] = target: T1, LXR (Homo sapiens, UniProt Q13133); test: Gal4-LXRα / UAS luciferase cotransfection assay; type: cell-based
# T1 sequence (Q13133 209-447 limits assumed): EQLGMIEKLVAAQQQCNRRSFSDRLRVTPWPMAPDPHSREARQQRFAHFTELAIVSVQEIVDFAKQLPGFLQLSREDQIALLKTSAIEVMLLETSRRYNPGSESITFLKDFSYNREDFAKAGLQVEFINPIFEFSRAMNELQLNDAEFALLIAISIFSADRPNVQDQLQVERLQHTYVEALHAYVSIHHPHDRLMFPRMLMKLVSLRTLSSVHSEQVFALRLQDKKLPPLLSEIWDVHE
# [2] = target: T2, RORα (Homo sapiens, UniProt P35398); test: IL-17 promoter luciferase reporter with full-length RORα; type: cell-based
# T2 sequence (P35398 1-523): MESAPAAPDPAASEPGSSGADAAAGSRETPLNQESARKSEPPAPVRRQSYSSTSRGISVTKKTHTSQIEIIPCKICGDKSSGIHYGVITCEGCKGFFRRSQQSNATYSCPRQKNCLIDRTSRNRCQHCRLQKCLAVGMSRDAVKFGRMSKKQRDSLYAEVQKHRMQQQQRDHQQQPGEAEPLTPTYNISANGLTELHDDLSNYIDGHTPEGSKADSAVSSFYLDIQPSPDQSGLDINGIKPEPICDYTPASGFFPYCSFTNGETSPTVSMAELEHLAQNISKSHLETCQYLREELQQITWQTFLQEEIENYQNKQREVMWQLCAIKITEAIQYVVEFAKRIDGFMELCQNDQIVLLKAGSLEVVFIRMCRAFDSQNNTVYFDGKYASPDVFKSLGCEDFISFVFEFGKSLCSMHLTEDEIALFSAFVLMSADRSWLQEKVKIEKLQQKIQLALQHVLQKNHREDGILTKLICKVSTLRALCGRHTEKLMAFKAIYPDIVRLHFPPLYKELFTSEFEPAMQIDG
# Excerpt: Since RORα and RORγ are critical regulators of IL-17 gene expression, we examined whether SR1555 would affect RORα and RORγ-dependent regulation of an IL-17 promoter driven luciferase reporter construct. HEK293 cells were transiently transfected with an IL-17 reporter, either full-length RORα or RORγ, and treated with an increasing concentration of SR1555[8]. In a dose dependent manner, SR1555 suppressed IL-17 promoter driven activity by RORγ but not RORα, further confirming that SR1555 is indeed a RORγ-specific inverse agonist (FIG. 1d). Finally, using EL4 cells, a murine thymoma which endogenously express RORα, RORγ t, and IL-17A, we examined whether SR1555 affected endogenous IL-17 gene expression. EL4 cells were treated with DMSO or SR1555 for 24 hours and analyzed for Il17a gene expression by quantitative real-time PCR.
# Cotransfection assays were performed as previously described in HEK293 cells (Gal4 cotransfection assay or IL-17 luciferase reporter)[8]. […]
# HEK293 cells were maintained in Dulbecco's modified Eagle's medium (DMEM) supplemented with 10% fetal bovine serum at 37° C. under 5% CO2. […] The luciferase levels were assayed following additional 20 hour incubation by one-step addition of BriteLite Plus (Perkin Elmer) and read using an Envision (Perkin Elmer). […]
smiles,measurement,setting,value
"OC(c1ccc(-c2ccc(CN3CCN(Cc4ccncc4)CC3)cc2)c(F)c1)(C(F)(F)F)C(F)(F)F [SR2211, 1,1,1,3,3,3-hexafluoro-2-(2-fluoro-4′-((4-(pyridin-4-ylmethyl)piperazin-1-yl)methyl)-[1,1′-biphenyl]-4-yl)propan-2-ol]",right shift of EC50 on LXRα,[1],more than 100 fold
same,effect on LXR activity,[1]; Gal4 chimeric cotransfection,minimal activation of LXRα
same,activation of LXRα as compared to T1317,[1]; highest concentration tested,less than 5%
same,IL-17 promoter driven activity by RORα,[2],did not alter the transcription driven by the Il17 promoter
